Measured values from US11766411B2, “Use of cannabinoids in the treatment of epilepsy” (GW Research Limited, priority 2014, dated 2023).

How the values were obtained:
[1] = Consroe et al., 1977; cited from earlier work
[2] = tested on: children and young adults with severe, childhood onset treatment-resistant epilepsy (TRE); experiment: Expanded access compassionate use program of highly purified CBD extract added to baseline AED regimen; seizure diaries; format: in vivo, human
Description: (§1) Twenty-seven children and young adults with severe, childhood onset treatment-resistant epilepsy (TRE) were tested with a highly purified extract of cannabidiol (CBD) obtained from a cannabis plant. The participants in the study were part of an expanded access compassionate use program for CBD.
(§2) All patients entered a baseline period of 4 weeks when parents/caregivers kept prospective seizure diaries, noting all countable motor seizure types.
(§3) The patients then received a highly purified CBD extract (greater than 98% CBD w/w) in sesame oil, of known and constant composition, at a dose of 5 mg/kg/day in addition to their baseline anti-epileptic drug (AED) regimen.
(§4) Laboratory testing for hematologic, liver, kidney function, and concomitant AED levels was performed at baseline, and after 4, 8 and 12 weeks of CBD therapy.

adult patients = details: 200 mg/day of pure CBD, four adult patients; cited from earlier work
[3] = tested on: children and young adults with treatment-resistant myoclonic absence seizures; experiment: Expanded access compassionate use program, myoclonic absence seizures sub-group; format: in vivo, human
Description: as §1, §2, §3, §4
Four children and young adults with treatment-resistant myoclonic absence seizures were part of an expanded access compassionate use program for highly purified CBD extract as described in Example 1.

[4] = tested on: children and young adults with treatment-resistant Dravet syndrome; experiment: Expanded access compassionate use program, Dravet syndrome sub-group; format: in vivo, human
Description: as §1, §2, §3, §4
Nine children and young adults with treatment-resistant Dravet syndrome were part of an expanded access compassionate use program for highly purified CBD extract as described in Example 1.

patients with FIRES = experiment: Expanded access program, febrile infection related epilepsy syndrome (FIRES) patients; format: in vivo, human; design: Change from Baseline: unit not given here; details: for % Change from Baseline / Change from Baseline / Frequency (per month) / Responder (>=50% Reduction) / Responder (>=70% Reduction) / Responder (>=90% Reduction) / Seizure Free: total seizures
Description: Three patients with FIRES, with an age range of from 4 to 15 years, were treated with CBD under an expanded access program as described previously in Example 1.
Safety laboratory studies, physical/neurological exams, 24 hour video/EEG and seizure types and frequencies were assessed at baseline and one month after starting CBD.
A highly purified extract of CBD as an oral solution in sesame oil was used at a concentration of 25 mg/mL.
Treatment was initiated at a dose of 10 mg/kg/day given in two divided doses, increasing by 5 mg/kg/day every 3 days.
Following seizure improvement an average of 2 AEDs were weaned.

[5] = tested on: institutionalized adult patients; details: 200 mg/day of pure CBD, twelve institutionalized adult patients, open label; cited from earlier work
[6] = tested on: adult patients with generalized epilepsy; details: eight adult patients with generalized epilepsy; cited from earlier work
mice = details: after administration of pro-convulsant drugs or an electric current; cited from earlier work
[7] = 27 subjects, 3-month treatment period
[8] = All patients (excluding Dravet, MAS and FIRES) (n = 13), after 12 weeks of treatment
[9] = All patients excluding Dravet patients (n = 18), after 3 months
[10] = All patients excluding MAS patients (n = 23), after 3 months
[11] = co-treatment of CBD with clobazam
[12] = 4 MAS subjects, 3-month treatment period
[13] = MAS patients (n = 4), after 3 months of therapy
[14] = 9 Dravet subjects, 3-month treatment period
[15] = Dravet patients (n = 9), after 3 months of therapy
[16] = FIRES patients (n = 3), after 12 weeks of treatment

## CCCCCc1cc(O)c2c(c1)OC(C)(C)[C@@H]1CCC(C)=C[C@@H]21 [THC, Tetrahydrocannabinol]
[1]
  effect on convulsions: pro-convulsant

## C=C(C)[C@@H]1CCC(C)=C[C@H]1c1c(O)cc(CCCCC)cc1O [CBD, Cannabidiol]
[2]; [7]
  Common adverse events: somnolence, fatigue, decreased appetite, increased appetite and diarrhoea
  adverse events: mild and well tolerated
  subjects who withdrew during the treatment period: None
[2]; [8]
  Responder rate (>50% reduction) [%]: 38%
  Responder rate (>50% reduction), number of patients: 5
  Responder rate (>70% reduction) [%]: 31%
  Responder rate (>70% reduction), number of patients: 4
  Responder rate (>90% reduction) [%]: 8%
  Responder rate (>90% reduction), number of patients: 1
  Seizure free, number of patients: 0
[2]; All patients (n = 27), Month 3
  Responder rate (>50% reduction) [%]: 48%
  Responder rate (>50% reduction), number of patients: 13
  Responder rate (>70% reduction) [%]: 41%
  Responder rate (>70% reduction), number of patients: 11
  Responder rate (>90% reduction) [%]: 22%
  Responder rate (>90% reduction), number of patients: 6
  Seizure free [%]: 7%
[2]; [9]
  Responder rate (>50% reduction) [%]: 44%
  Responder rate (>50% reduction), number of patients: 8
  Responder rate (>70% reduction) [%]: 39%
  Responder rate (>70% reduction), number of patients: 7
  Responder rate (>90% reduction) [%]: 17%
  Responder rate (>90% reduction), number of patients: 3
  Seizure free, number of patients: 0
[2]; [10]
  Responder rate (>50% reduction) [%]: 48%
  Responder rate (>50% reduction), number of patients: 11
  Responder rate (>70% reduction) [%]: 39%
  Responder rate (>70% reduction), number of patients: 9
  Responder rate (>90% reduction) [%]: 22%
  Responder rate (>90% reduction), number of patients: 5
  Seizure free [%]: 9%
  Seizure free, number of patients: 2
[2]; [11]
  odds ratio (OR) for positive treatment response (greater than 50% responder rate), convulsive seizures: 1.9
  odds ratio (OR) for positive treatment response (greater than 50% responder rate), total seizure reduction: 3.3
[2]; doses up to 25 mg/kg/day
  tolerability: generally well-tolerated
Adult patients
  patients who became seizure free: two
[3]; [12]
  Common adverse events: somnolence, fatigue, decreased appetite, increased appetite and diarrhoea
  adverse events: mild and well tolerated
  subjects who withdrew during the treatment period: None
[3]; [13]
  Responder rate (>50% reduction), number of patients: 2
  Responder rate (>70% reduction) [%]: 50%
  Responder rate (>70% reduction), number of patients: 2
  Responder rate (>90% reduction) [%]: 25%
  Seizure free, number of patients: 0
[4]; [14]
  Common adverse events: somnolence, fatigue, decreased appetite, increased appetite and diarrhoea
  adverse events: mild and well tolerated
  subjects who withdrew during the treatment period: None
[4]; [15]
  Responder rate (>50% reduction) [%]: 56%
  Responder rate (>50% reduction), number of patients: 5
  Responder rate (>70% reduction) [%]: 44%
  Responder rate (>70% reduction), number of patients: 4
  Responder rate (>90% reduction), number of patients: 3
  Seizure free [%]: 22%
  Seizure free, number of patients: 2
Patients with FIRES; FIRES patients
  functional recovery after a reduction in seizures: able to walk and verbalise once more
Patients with FIRES; [16]
  Responder rate (>50% reduction) [%]: 67%
  Responder rate (>50% reduction), number of patients: 2
  Responder rate (>70% reduction) [%]: 67%
  Responder rate (>70% reduction), number of patients: 2
  Responder rate (>90% reduction) [%]: 67%
  Responder rate (>90% reduction), number of patients: 2
  Seizure free [%]: 33%
  Seizure free, number of patients: 1
Patients with FIRES; Patient 1, 24 week period
  seizure freedom over the treatment period: seizure free after starting treatment for almost all of the treatment period
Patients with FIRES; Patient 2, after 4 weeks
  reduction in seizures: 50%
Patients with FIRES; Patient 3, week 24
  reduction in the number of seizures: greater than 90%
Patients with FIRES; in two of the three children with refractory seizures or status epilepticus due to FIRES
  improvement in clinical and electrographic seizure burden: greater than 90%
Patients with FIRES; three FIRES patients
  Follow up laboratory tests (safety studies, concomitant AED levels): no changes in safety studies or concomitant AED levels
  tolerability: very well tolerated
  treatment related adverse effects: No treatment related adverse effects
Patients with FIRES; Patient 1, Wk 4
  % Change from Baseline: −100.0%
  Change from Baseline: −4.0
  Frequency (per month): 0.0 per month
  Responder (>=50% Reduction): Yes
  Responder (>=70% Reduction): Yes
  Responder (>=90% Reduction): Yes
  Seizure Free: Yes
Patients with FIRES; Patient 1, Wk 8
  % Change from Baseline: −75.0%
  Change from Baseline: −3.0
  Frequency (per month): 1.0 per month
  Responder (>=50% Reduction): Yes
  Responder (>=70% Reduction): Yes
  Responder (>=90% Reduction): No
  Seizure Free: No
Patients with FIRES; Patient 1, Wk 12
  % Change from Baseline: −100.0%
  Change from Baseline: −4.0
  Frequency (per month): 0.0 per month
  Responder (>=50% Reduction): Yes
  Responder (>=70% Reduction): Yes
  Responder (>=90% Reduction): Yes
  Seizure Free: Yes
Patients with FIRES; Patient 1, Wk 16
  % Change from Baseline: −100.0%
  Change from Baseline: −4.0
  Frequency (per month): 0.0 per month
  Responder (>=50% Reduction): Yes
  Responder (>=70% Reduction): Yes
  Responder (>=90% Reduction): Yes
  Seizure Free: Yes
Patients with FIRES; Patient 1, Wk 24
  % Change from Baseline: −92.0%
  Change from Baseline: −3.7
  Frequency (per month): 0.3 per month
  Responder (>=50% Reduction): Yes
  Responder (>=70% Reduction): Yes
  Responder (>=90% Reduction): Yes
  Seizure Free: No
Patients with FIRES; Patient 2, Wk 2
  % Change from Baseline: −88.6%
  Change from Baseline: −6.2
  Frequency (per month): 0.8 per month
  Responder (>=50% Reduction): Yes
  Responder (>=70% Reduction): Yes
  Responder (>=90% Reduction): No
  Seizure Free: No
Patients with FIRES; Patient 2, Wk 4
  % Change from Baseline: −57.1%
  Change from Baseline: −4.0
  Frequency (per month): 3.0 per month
  Responder (>=50% Reduction): Yes
  Responder (>=70% Reduction): No
  Responder (>=90% Reduction): No
  Seizure Free: No
Patients with FIRES; Patient 2, Wk 8
  % Change from Baseline: 42.9%
  Change from Baseline: 3.0
  Frequency (per month): 10.0 per month
  Responder (>=50% Reduction): No
  Responder (>=70% Reduction): No
  Responder (>=90% Reduction): No
  Seizure Free: No
Patients with FIRES; Patient 2, Wk 12
  % Change from Baseline: 14.3%
  Change from Baseline: 1.0
  Frequency (per month): 8.0 per month
  Responder (>=50% Reduction): No
  Responder (>=70% Reduction): No
  Responder (>=90% Reduction): No
  Seizure Free: No
Patients with FIRES; Patient 2, Wk 16
  % Change from Baseline: −42.9%
  Change from Baseline: −3.0
  Frequency (per month): 4.0 per month
  Responder (>=50% Reduction): No
  Responder (>=70% Reduction): No
  Responder (>=90% Reduction): No
  Seizure Free: No
Patients with FIRES; Patient 3, Wk 4
  % Change from Baseline: −99.2%
  Change from Baseline: −5552.8
  Frequency (per month): 47.2 per month
  Responder (>=50% Reduction): Yes
  Responder (>=70% Reduction): Yes
  Responder (>=90% Reduction): Yes
  Seizure Free: No
Patients with FIRES; Patient 3, Wk 8
  % Change from Baseline: −99.8%
  Change from Baseline: −5590.8
  Frequency (per month): 9.2 per month
  Responder (>=50% Reduction): Yes
  Responder (>=70% Reduction): Yes
  Responder (>=90% Reduction): Yes
  Seizure Free: No
Patients with FIRES; Patient 3, Wk 12
  % Change from Baseline: −97.5%
  Change from Baseline: −5458.4
  Frequency (per month): 141.6 per month
  Responder (>=50% Reduction): Yes
  Responder (>=70% Reduction): Yes
  Responder (>=90% Reduction): Yes
  Seizure Free: No
Patients with FIRES; Patient 3, Wk 24
  % Change from Baseline: −90.3%
  Change from Baseline: −5058.0
  Frequency (per month): 542.0 per month
  Responder (>=50% Reduction): Yes
  Responder (>=70% Reduction): Yes
  Responder (>=90% Reduction): Yes
  Seizure Free: No
[5]
  controlling seizures: ineffective
[6]
  patients with a marked reduction of seizures: 4
mice
  prevention of seizures: able to prevent seizures
